This is an account of results in patent publication US20190029257A1, “APPLICATION FOR HERBICIDE-TOLERANT PROTEIN” (BEIJING DABEINONG TECHNOLOGY GROUP CO., LTD., priority 2016, published 2019).

Holding throughout (type): in vivo
For test [1], the system named is wild-type maize plants (CK2). The test can be described thus: Halosulfuron-methyl tolerance of maize plants (damage degree). More on the design: Average damage % 3 DAT / Average damage % 7 DAT / Average damage % 14 DAT / Average damage % 21 DAT: dose or concentration left out as unconfirmed. As to the method:
The herbicide tolerance effects of Zm cytoplasmic ALT-1-02 maize plants, Zm chloroplastic ALT-1-02 maize plants, Zm cytoplasmic ALT-2-02 maize plants, Zm chloroplastic ALT-2-02 maize plants, Zm cytoplasmic ALT-3-02 maize plants, Zm chloroplastic ALT-3-02 maize plants and wild-type maize plants on halosulfuron-methyl were detected (at V3-V4 stage), respectively.
[…] The damage degree caused by the herbicide was measured for each plant according to the plant growth status 3 days after spraying (3 DAT), 7 days after spraying (7 DAT), 14 days after spraying (14 DAT) and 21 days after spraying (21 DAT), respectively: considering a growth status equivalent to that of the untreated plants as having a damage degree of 0%; considering conditions of leaves being partially chlorotic and yellow but substantially not affecting the plant normal growth as having a damage degree of 50%; and considering the whole plant being purple and dying as having a damage degree of 100%. There were 2 strains in Zm cytoplasmic ALT-1-02 maize plants in total (S13 and S14), 2 strains in Zm chloroplastic ALT-1-02 maize plants in total (S15 and S16), 2 strains in Zm cytoplasmic ALT-2-02 maize plants in total (S17 and S18), 2 strains in Zm chloroplastic ALT-2-02 maize plants in total (S19 and S20), 2 strains in Zm cytoplasmic ALT-3-02 maize plants in total (S21 and S22), 2 strains in Zm chloroplastic ALT-3-02 maize plants in total (S23 and S24), and 1 strain in wild- type maize plants (CK2) in total; and 10-15 plants were selected from each strain and tested.

In test [2] the test system is At chloroplastic ALT-1-01 T1 plants. The test can be described thus: Herbicide tolerance of Arabidopsis thaliana T1 plants (spray, resistance classes counted). Conditions: 18 g ai/ha (1x Hal.); number of plants 14 days after spraying; Total 31.
Excerpt: (§1) T1 transformants were initially selected from the background of untransformed seeds using a glufosinate selection scheme. About 40000 T1 seeds were screened, and 380 T1 positive transformants (PAT gene) were identified with a transformation efficiency of about 0.95%. The plants that were transformed with the recombinant expression vector DBN100632 were Arabidopsis thaliana plants having an ALT-1-01 nucleotide sequence located in the cytoplasm introduced (At cytoplasmic ALT-1-01), and the plants that were transformed with the recombinant expression vector DBN100631 were Arabidopsis thaliana plants having an ALT-1-01 nucleotide sequence located in the chloroplast introduced (At chloroplastic ALT-1-01); the plants that were transformed with the recombinant expression vector DBN100634 were Arabidopsis thaliana plants having an ALT-2-01 nucleotide sequence located in the cytoplasm introduced (At cytoplasmic ALT-2-01), and the plants that were transformed with the recombinant expression vector DBN100633 were Arabidopsis thaliana plants having an ALT-2-01 nucleotide sequence located in the chloroplast introduced (At chloroplastic ALT-2-01); and the plants that were transformed with the recombinant expression vector DBN100636 were Arabidopsis thaliana plants having an ALT-3-01 nucleotide sequence located in the cytoplasm introduced (At cytoplasmic ALT-3-01), and the plants that were transformed with the recombinant expression vector DBN100635 were Arabidopsis thaliana plants having an ALT-3-01 nucleotide sequence located in the chloroplast introduced (At chloroplastic ALT-3-01). The herbicide tolerance effects of At cytoplasmic ALT-1-01 T1 plants, At chloroplastic ALT-1-01 T1 plants, At cytoplasmic ALT-2-01 T1 plants, At chloroplastic ALT-2-01 T1 plants, At cytoplasmic ALT-3-01 T1 plants, At chloroplastic ALT-3-01 T1 plants and wild-type Arabidopsis thaliana plants on halosulfuron-methyl were detected (14 days after sowing), respectively.
(§2) […] Plants were counted for the resistance situations 14 days after spraying: those having a consistent growth status with the blank solvent (water) group after 14 days were classified as highly resistant plants, those having a bolting height less than ½ of that of the blank solvent (water) group after 14 days were classified as moderately resistant plants, those still not capable of bolting after 14 days were classified as poorly resistant plants, and those dead after 14 days were classified as non-resistant plants. Since each Arabidopsis thaliana T1 plant was an independent transformation event, a significant difference in individual T1 responses could be expected at a given dose.
as §2, with “situation” for “situations”

In test [3] the test system is At cytoplasmic ALT-1-01 T1 plants. The description is as above. To be noted: 18 g ai/ha (1x Hal.); number of plants 14 days after spraying; Total 31.
Excerpt: as §1, §2
as §2, with “situation” for “situations”

Test [4] has as its system At chloroplastic ALT-3-01 T1 plants. The description is as above. Conditions: 18 g ai/ha (1x Hal.); number of plants 14 days after spraying; Total 30.
Excerpt: as §1, §2
as §2, with “situation” for “situations”

The subject of test [5] is At chloroplastic ALT-2-01 T1 plants. The description is as above. Conditions: 18 g ai/ha (1x Hal.); number of plants 14 days after spraying; Total 31.
Excerpt: as §1, §2
as §2, with “situation” for “situations”

In test [6] the test system is At cytoplasmic ALT-3-01 T1 plants. The description is as above. To be noted: 18 g ai/ha (1x Hal.); number of plants 14 days after spraying; Total 28.
Excerpt: as §1, §2
as §2, with “situation” for “situations”

On to `COC(=O)c1c(Cl)nn(C)c1S(=O)(=O)NC(=O)Nc1nc(OC)cc(OC)n1` [halosulfuron-methyl, 3-chlorine-5-(4,6-dimethoxypyrimidine-2-aminocarbonylaminosulphonyl)-1-methylpyrazole-4-carboxylic acid methyl ester], for which the “damage to the plants” value in test [1] (36 g ai/ha, summary of Table 4) was “some slight damage”. Further, in test [1] (strain CK2, 3 days after spraying), the “Average damage % 3 DAT” value was determined as 10%. The “Average damage % 7 DAT” value in test [1] (strain CK2, 7 days after spraying) stood at 20%. Besides, the “Average damage % 14 DAT” value in test [1] (strain CK2, 14 days after spraying) is reported as 19%. Moreover, the “Average damage % 21 DAT” value in test [1] (strain CK2, 21 days after spraying) is reported as 18%. The Highly resistant in test [2], in test [4], in test [5] and in test [6] was 1 in each case. Also, the Moderately resistant in test [2] is recorded as 2; in test [3], 6; in test [4] it was 6; in test [5], 4; in test [6] it was 6. Also, the Non-resistant in test [2] is given as 7; in test [3] it was 15; in test [4] it was 5; in test [5], 5; in test [6], 5. Further, the Poorly resistant in test [2] turned out to be 5; in test [3], 5; in test [4] it was 5; in test [5], 7; in test [6], 5.
